Test results from the NIST ThermoML archive (doi:10.1021/je049762q).

Assay: molar heat capacity at constant pressure
Details: 101.33 kPa, Crystal 3

Clc1ccc(Cl)cc1 [1,4-dichlorobenzene]
Details	molar heat capacity at constant pressure [J/K/mol]
5.11 K	0.29
6.43 K	0.42
7.21 K	0.83
7.89 K	1.18
9.58 K	2.1
10 K	2.33
11.66 K	3.22
13.08 K	4.5
14.5 K	6.12
15 K	6.7
15.94 K	7.81
18.49 K	10.86
19 K	11.19
20 K	12.69
20.21 K	12.96
21.65 K	14.62
22.92 K	16.12
24.05 K	17.45
25 K	18.52
25.09 K	18.62
26.05 K	19.66
28.53 K	21.78
30 K	23.27
32.77 K	26.1
34.99 K	28.16
36.99 K	29.91
38.82 K	31.33
40 K	32.27
42.09 K	33.94
44.35 K	35.66
46.46 K	37.19
48.44 K	38.2
50 K	39.36
52.09 K	40.68
53.8 K	41.66
55.44 K	42.56
57.02 K	43.48
58.55 K	44.32
60 K	45.13
60.03 K	45.14
63.79 K	47.24
66.94 K	48.83
69.94 K	50.35
70 K	50.38
72.81 K	51.62
80 K	55.34
82.41 K	56.53
85.29 K	57.82
88.14 K	59.02
90 K	59.86
91.01 K	60.3
93.9 K	61.52
96.8 K	62.72
99.71 K	63.94
100 K	64.06
102.62 K	65.39
103.2 K	65.58
105.55 K	66.59
107.33 K	67.31
108.49 K	67.79
110 K	68.42
111.35 K	68.99
111.43 K	69.01
114.39 K	70.21
115.28 K	70.59
117.35 K	71.41
119.12 K	72.17
120 K	72.49
120.32 K	72.62
122.89 K	73.69
123.3 K	73.82
126.28 K	75.05
126.6 K	75.16
129.27 K	76.26
130 K	76.54
130.24 K	76.63
132.26 K	77.49
133.83 K	78.06
135.26 K	78.7
137.36 K	79.47
138.27 K	79.99
140 K	80.56
140.85 K	80.87
141.27 K	81.11
144.27 K	82.33
147.28 K	83.54
147.69 K	83.58
150 K	84.62
150.29 K	84.72
151.05 K	84.88
153.31 K	85.92
156.33 K	87.11
159.35 K	88.32
160 K	88.57
162.38 K	89.5
165.4 K	90.68
168.43 K	91.85
170 K	92.45
171.47 K	93.01
177.53 K	95.43
180 K	96.42
180.53 K	96.63
183.51 K	97.84
186.47 K	98.95
188.91 K	99.81
189.41 K	100.08
190 K	100.33
191.9 K	101.04
192.33 K	101.32
